Measured values reported in patent EP1746087A1, “Derivates of 3-indolylmethylene having cytostatic properties” (Universitaet Regensburg, priority 2005, dated 2007).
Read-outs that look alike come from different tables or passages of the source.

Columns and labels:
Type in all cases: cell-based, menschlich
[1] = test system: MDA-MB-231-Brustkrebszellen; assay: Growth inhibition of MDA-MB-231 breast cancer cells in vitro (cytostatic effect); settings: MDA-MB-231 cells, read-out: IC50 Hemmwirkung auf das Wachstum
From the text: (§1) Die cytostatische Wirkung der erfindungsgemäßen Verbindungen wurde an zwei verschiedenen menschlichen Mammacarcinomzellinien in vitro bestimmt (M. Goldbrunner et al., J.Med.Chem. 1997,40,3525). Es handelt sich dabei um die hormonunabhängige MDA-MB-231-Zellinie und die estrogensensitive MCF-7-Linie. Die MDA-MB-231-Zellen wurden auch für die durchflusszytometrischen Analysen zur Zellzyklusverteilung herangezogen (M.J.J. Jaroszeski und R. Heller, Flow Cytometry Protocols, Humana Press, 1998, Totowa New Jersey). Besonders überraschend war, dass diese synthetischen Verbindungen häufig bereits im Konzentrationsbereich von 10 bis 100 nanomolar das Wachstum von menschlichen Tumorzellen stark hemmen, obwohl sie nur ein relativ niedriges Molekulargewicht aufweisen (MG ~ 320 - 500) (Tabelle 2 und 3, Abb. 2). Potente Therapeutika, die ebenfalls in den Zellzyklus eingreifen, besitzen Molekulargewichte im Bereich von 825 (Vincristin als Base) und 850 (Paclitaxel).

[2] = test system: MCF-7-Mammacarcinomzellen; assay: Growth inhibition of MCF-7 mammary carcinoma cells in vitro (cytostatic effect); settings: MCF-7 cells, read-out: IC50 Hemmwirkung auf das Wachstum
From the text: as §1

[3] = test system: MDA-MB-231-Mammacarcinomzellen; assay: Flow-cytometric analysis of cell cycle distribution
From the text: as §1

| IC50 ([1]; Homo sapiens) [µM] | IC50 [1] [µM] | Compound | IC50 ([2]; Homo sapiens, MCF7) [µM] | Debris % ([3]; Konz. 0.5 µM) [%] | G1/G0 % ([3]; Konz. 0.5 µM) [%] | G2/M % ([3]; Konz. 0.5 µM) [%] | S % ([3]; Konz. 0.5 µM) [%] | Debris % ([3]; Konz. 1.0 µM) [%] | G1/G0 % ([3]; Konz. 1.0 µM) [%] | G2/M % ([3]; Konz. 1.0 µM) [%] | S % ([3]; Konz. 1.0 µM) [%] | Debris % ([3]; Konz. 0.05 µM) [%] | G1/G0 % ([3]; Konz. 0.05 µM) [%] | G2/M % ([3]; Konz. 0.05 µM) [%] | S % ([3]; Konz. 0.05 µM) [%] | Debris % ([3]; Konz. 0.1 µM) [%] | G1/G0 % ([3]; Konz. 0.1 µM) [%] | G2/M % ([3]; Konz. 0.1 µM) [%] | S % ([3]; Konz. 0.1 µM) [%] | IC50 [2] [µM] | further results |
| --- | --- | --- | --- | --- | --- | --- | --- | --- | --- | --- | --- | --- | --- | --- | --- | --- | --- | --- | --- | --- | --- |
| 0.28 | – | COc1ccc(-c2[nH]c3ccc(C)cc3c2C=C(C#N)C#N)cc1 [Verbindung 1, [2-(4-Methoxyphenyl)-5-methyl-indol-3-yl]-methylenpropandinitril] | 0.2 | 7.8 | 41.0 | 32.0 | 19.2 | 16.4 | 16.9 | 45.4 | 21.3 | – | – | – | – | – | – | – | – | – | Debris % ([3]; Konz. 5.0 µM): 6.4%; G1/G0 % ([3]; Konz. 5.0 µM): 9.8%; G2/M % ([3]; Konz. 5.0 µM): 57.7%; S % ([3]; Konz. 5.0 µM): 26.1% |
| 0.21 | – | COc1ccc(-c2[nH]c3cc(C(C)C)ccc3c2C=C(C#N)C#N)cc1 [Verbindung 6, [6-Isopropyl-2-(4-methoxyphenyl)-indol-3-yl]methylenpropandinitril] | 0.31 | – | – | – | – | – | – | – | – | – | – | – | – | – | – | – | – | – | – |
| 0.04 | – | CCCCc1ccc2[nH]c(-c3ccc(OC)cc3)c(C=NO)c2c1 [Verbindung 20, 5-n-Butyl-2-(4-methoxyphenyl)-indol-3-carbaldehyd-oxim] | 0.21 | 9.6 | 9.0 | 64.6 | 14.4 | 13.8 | 9.6 | 54.8 | 21.2 | 7.3 | 50.0 | 30.0 | 13.2 | 12.2 | 38.6 | 34.9 | 14.4 | – | – |
| – | 0.097 | CCCCc1ccc2[nH]c(-c3ccc(C(F)(F)F)cc3)c(C=NNC(=O)c3cccnc3)c2c1 [Verbindung 25, 5-Butyl-2-[4-(trifluormethyl)-phenyl]-indol-3-carbaldehyd-nicotinylhydrazone] | – | 6.9 | 11.4 | 75.2 | 11.0 | – | – | – | – | 2.7 | 51.2 | 24.1 | 23.1 | 2.6 | 48.8 | 24.9 | 24.4 | 0.26 | Debris % ([3]; Konz. 0.01 µM): 2.3%; G1/G0 % ([3]; Konz. 0.01 µM): 50.8%; G2/M % ([3]; Konz. 0.01 µM): 26.3%; S % ([3]; Konz. 0.01 µM): 21.7% |
| 0.013 | – | CCCCc1ccc2[nH]c(-c3ccc(OC)cc3)c(C=C(C#N)C#N)c2c1 [Verbindung 7, [5-n-Butyl-2-(4-methoxyphenyl)-indol-3-yl]-methylenpropandinitril] | 0.013 | – | – | – | – | – | – | – | – | – | – | – | – | – | – | – | – | – | – |
| – | 0.075 | COc1ccc(-c2[nH]c3cc(Cl)c(C)cc3c2C=C(C#N)C#N)cc1 [Verbindung 2, [6-Chlor-2-(4-methoxyphenyl)-5-methyl-indol-3-yl]-methylenpropandinitril] | – | – | – | – | – | – | – | – | – | – | – | – | – | – | – | – | – | 0.2 | – |
| – | 0.032 | CCCCc1ccc2[nH]c(-c3ccc(C(F)(F)F)cc3)c(C=NC)c2c1 [Verbindung 19, 5-n-Butyl-2-[4-(trifluormethyl)-phenyl]-indol-3-carbaldehyd-methylimin] | – | 20.5 | 6.3 | 59.8 | 11.1 | – | – | – | – | 14.6 | 38.9 | 30.8 | 15.3 | 27.1 | 5.5 | 59.3 | 7.2 | 0.14 | Debris % ([3]; Konz. 0.01 µM): 4.4%; G1/G0 % ([3]; Konz. 0.01 µM): 43.8%; G2/M % ([3]; Konz. 0.01 µM): 36.6%; S % ([3]; Konz. 0.01 µM): 14.0% |
| 0.046 | – | CCCCCCc1ccc2[nH]c(-c3ccc(OC)cc3)c(C=C(C#N)C#N)c2c1 [Verbindung 9, [5-n-Hexyl-2-(4-methoxyphenyl)-indol-3-yl]-methylenpropandinitril] | 0.025 | 22.6 | 7.4 | 53.9 | 16.1 | 15.9 | 7.1 | 57.3 | 19.7 | – | – | – | – | 6.1 | 46.2 | 22.4 | 25.3 | – | – |
| 0.042 | – | CCCCCc1ccc2[nH]c(-c3ccc(OC)cc3)c(C=C(C#N)C#N)c2c1 [Verbindung 8, [2-(4-Methoxyphenyl)-5-n-pentyl-indol-3-yl]-methylenpropandinitril] | 0.076 | – | – | – | – | – | – | – | – | – | – | – | – | – | – | – | – | – | – |
